# Results as given in patent US11149066B2, “Thrombospondin 1-binding peptide” (DAIICHI SANKYO COMPANY, LIMITED, priority 2016, dated 2021).
# Positions of bridges follow the written chain, without caps; N, C: chain ends. Non-standard residues stand in square brackets, D forms with d. Residues, ends and D or L forms follow the SMILES beside them. 2Nal = N[C@@H](Cc1ccc2ccccc2c1)C(=O)O; hCit = NC(=O)NCCCC[C@H](N)C(=O)O; Tle = CC(C)(C)[C@H](N)C(=O)O; Nle = CCCC[C@H](N)C(=O)O
# Target: human TSP1 (Homo sapiens, UniProt P07996)
# Assay: Cell adhesion inhibition assay (HUVEC adhesion to TSP1-coated plate)
# Assay type: cell-based
# Conditions: HUVEC adhesion to TSP1-coated plate; read-out: cell adhesion inhibition (Table 4)
# Method: As referred to herein, the TSP1 inhibitory activity refers to the activity to inhibit one or more effects of TSP1, including angiostatic effect. The TSP1 inhibitory activity is measured by a cell adhesion inhibition assay using human TSP1 and vascular endothelial cells as described hereinbelow in the Examples section. In this assay, when the 50% inhibitory concentration (IC5O) of a test substance is 200 nM or less, the test substance is determined to have TSP1 inhibitory activity.
# (Test Example 1) Cell Adhesion Inhibition Assay
# I. Materials and Reagents
# 96 well Non-treated White with clear bottom (Coster, 3632)
# BrightMax adhesive sealing films (EXCEL Scientific, WT50)
# Proteosave®SS 15 mL (Sumitomo Bakelite, MS-52150)
# Thrombospondin human platelet (Calbiochem, 605225)
# EGM-2 MV (Lonza, CC-3202): for HUVEC passaging
# Collagen coated dish (IWAKI, 4020-010): for HUVEC passaging
# Lipidure®-BL802 (NOF Corporation), 5% solution
# Albumin solution (35%) fraction V from Bovine (Sigma, A7979)
# CellTiter-Glo (Promega, G7572)
# Thrombospondin 1 vial (25 μg) was dissolved in TBS (+2 mM CaCl2; the same shall apply hereunder) to make a 200 μg/mL solution, which was diluted with TBS to a concentration of 10 μg/mL in Proteosave® 15 mL tube. The 10 μg/mL solution was dispensed into a 96 well plate at a volume of 50 μL/well (no reservoir was used since the protein easily adsorbs on it), and the plate was left to stand at 4° C. overnight.
# Lipidure® was diluted 10-fold with TBS to make a 0.5% solution. After a buffer was discarded from the plate that had been coated at the step of <Plate coat> as described above, the 0.5% solution was dispensed into all wells to be used at a volume of 100 μL/well, and the plate was left to stand at room temperature for 1 hour.
# A 0.2 μM solution of each sample was prepared using a dilution buffer (DMEM+0.5% BSA). 2 μL of the 0.2 μM solution was diluted with 500 μL, of dilution buffer to prepare a diluted sample. As a vehicle control, DMSO was diluted in the same way as the samples.
# A blocking solution was discarded from the plate that had been treated at the step of <Plate blocking> as described above, and the plate was washed three times with 150 μL/well of TBS. The washing solution used for the third washing was completely sucked out by an aspirator, and the diluted sample was dispensed into the plate at a volume of 50 μL/well. Then, the plate was left to stand at room temperature for 15 to 30 minutes.
# To maintain HUVECs, EGM2-MV and a collagen coated dish were used (the cells were ceased to be used after 10th or 1 lth passage since the cell proliferation rate declined at this stage). The cells were dispersed with 0.05% Trypsin/EDTA, harvested in DMEM/0.5% BSA, and centrifuged at 1000 rpm for 3 minutes. After removal of supernatant, the cells were washed once with a DMEM buffer. The cells were resuspended in a DMEM buffer, counted for cell number, and diluted to 10000 cells/50 μL. The cell suspension was dispensed at a volume of 50 μL/well into the plate into which the sample had been dispensed, mixed gently, and incubated at 37° C. for 2.5 hours.
# After cell adhesion was confirmed, the culture medium was completely removed by an aspirator, and 100 μL/well of DMEM/0.5% BSA was gently dispensed. Then, DMEM/0.5% BSA was completely removed by an aspirator, and 50 μL/well of DMEM/0.5% BSA was dispensed. After a white seal was applied to the bottom of the plate, 50 μL/well of CellTiter-Glo® was dispensed, and the solution was stirred for 2 minutes and left to stand at room temperature for 8 minutes. […] was detected using EnVision Xcite Multilabel Reader (produced by Perkin Elmer).
# On the basis of the measured fluorescence values, the IC50 values (nM) of the different macrocyclic polypeptides for inhibition of cell adhesion were calculated.
# human TSP1, sequence (P07996 19-1170 limits assumed): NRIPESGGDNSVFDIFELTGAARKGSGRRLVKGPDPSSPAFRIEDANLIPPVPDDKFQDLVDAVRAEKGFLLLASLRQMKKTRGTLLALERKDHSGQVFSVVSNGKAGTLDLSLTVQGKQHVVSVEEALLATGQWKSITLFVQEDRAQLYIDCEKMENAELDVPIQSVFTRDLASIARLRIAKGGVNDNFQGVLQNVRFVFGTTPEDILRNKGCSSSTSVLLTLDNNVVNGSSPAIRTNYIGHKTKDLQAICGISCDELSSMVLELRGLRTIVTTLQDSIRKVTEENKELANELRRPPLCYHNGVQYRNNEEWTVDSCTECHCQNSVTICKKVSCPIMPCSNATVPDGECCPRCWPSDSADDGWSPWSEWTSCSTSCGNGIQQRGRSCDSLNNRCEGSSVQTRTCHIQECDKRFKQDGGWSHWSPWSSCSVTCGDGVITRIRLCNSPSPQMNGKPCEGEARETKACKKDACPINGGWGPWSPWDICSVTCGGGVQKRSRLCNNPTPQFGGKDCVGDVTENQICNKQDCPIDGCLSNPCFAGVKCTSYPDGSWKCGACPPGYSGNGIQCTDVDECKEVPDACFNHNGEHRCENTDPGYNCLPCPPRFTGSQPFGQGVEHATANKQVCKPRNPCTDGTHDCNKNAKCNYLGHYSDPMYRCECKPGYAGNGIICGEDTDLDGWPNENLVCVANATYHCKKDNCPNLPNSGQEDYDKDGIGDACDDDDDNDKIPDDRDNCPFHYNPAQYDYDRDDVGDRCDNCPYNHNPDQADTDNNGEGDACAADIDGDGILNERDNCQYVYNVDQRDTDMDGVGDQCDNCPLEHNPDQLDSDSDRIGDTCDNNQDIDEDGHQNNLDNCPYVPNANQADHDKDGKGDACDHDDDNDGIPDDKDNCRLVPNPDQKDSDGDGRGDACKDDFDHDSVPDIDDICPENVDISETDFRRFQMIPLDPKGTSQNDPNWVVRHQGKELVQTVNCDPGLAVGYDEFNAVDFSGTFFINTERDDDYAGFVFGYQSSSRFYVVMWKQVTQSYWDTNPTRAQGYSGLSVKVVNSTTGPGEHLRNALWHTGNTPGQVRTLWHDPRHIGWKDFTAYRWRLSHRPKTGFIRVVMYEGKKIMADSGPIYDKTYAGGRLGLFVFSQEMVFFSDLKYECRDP
row,Compound,IC50 [nM]
1,CCCC[C@@H]1NC(=O)[C@H](Cc2c[nH]c3ccccc23)NC(=O)[C@H](CC(=O)O)NC(=O)[C@H](CCCNC(=N)N)NC(=O)CNC(=O)[C@H](CO)NC(=O)[C@H]([C@@H](C)CC)NC(=O)[C@H](Cc2ccc3ccccc3c2)NC(=O)[C@H](CCCCN)NC(=O)CSC[C@@H](C(N)=O)NC(=O)[C@H](C(C)C)NC(=O)[C@H](Cc2c[nH]c3ccccc23)NC(=O)[C@H](CCCCN)NC1=O [Compound 90] ({CH2CO}-K[2Nal]ISGRDW[Nle]KWVC-NH2; thioether N-13),17.2
2,CCCC[C@@H]1NC(=O)[C@H](Cc2c[nH]c3ccccc23)NC(=O)[C@H](CC(=O)O)NC(=O)[C@H](CCCNC(=N)N)NC(=O)CNC(=O)[C@H](CO)NC(=O)[C@H]([C@@H](C)CC)NC(=O)[C@H](Cc2ccc3ccccc3c2)NC(=O)[C@H](CCC(N)=O)NC(=O)CSC[C@@H](C(N)=O)NC(=O)[C@H](C(C)C)NC(=O)[C@H](Cc2c[nH]c3ccccc23)NC(=O)[C@H](CCCCN)NC1=O [Compound 86] ({CH2CO}-Q[2Nal]ISGRDW[Nle]KWVC-NH2; thioether N-13),14.2
3,CCCC[C@@H]1NC(=O)[C@H](Cc2c[nH]c3ccccc23)NC(=O)[C@H](CC(=O)O)NC(=O)[C@H](Cc2c[nH]cn2)NC(=O)CNC(=O)[C@H](CO)NC(=O)[C@H](CCCNC(=N)N)NC(=O)[C@H](Cc2ccc3ccccc3c2)NC(=O)CSC[C@@H](C(N)=O)NC(=O)[C@H](C(C)C)NC(=O)[C@H](Cc2c[nH]c3ccccc23)NC(=O)[C@H](C(C)C)NC1=O [Compound 101] ({CH2CO}-[2Nal]RSGHDW[Nle]VWVC-NH2; thioether N-12),19.6

# Same assay, conditions: HUVEC adhesion to human platelet thrombospondin-coated plate, 2.5 hours, CellTiter-Glo; read-out: Cell adhesion IC50
row,Compound,IC50 [nM]
1,CCCC[C@@H]1NC(=O)[C@H](Cc2c[nH]c3ccccc23)NC(=O)[C@H](CC(N)=O)NC(=O)[C@H](Cc2c[nH]cn2)NC(=O)CNC(=O)[C@H](CO)NC(=O)[C@H]([C@@H](C)CC)NC(=O)[C@H](Cc2ccc3ccccc3c2)NC(=O)CSC[C@@H](C(N)=O)NC(=O)[C@H](C(C)C)NC(=O)[C@H](Cc2c[nH]c3ccccc23)NC(=O)[C@H](CCCCN)NC1=O [Compound 59] ({CH2CO}-[2Nal]ISGHNW[Nle]KWVC-NH2; thioether N-12),20.7
2,CC[C@H](C)[C@@H]1NC(=O)[C@H](Cc2ccccc2)NC(=O)CSC[C@@H](C(N)=O)NC(=O)[C@H](CCCNC(=N)N)NC(=O)[C@H](Cc2c[nH]c3ccccc23)NC(=O)[C@H](CCCNC(=N)N)NC(=O)[C@H](C(C)C)NC(=O)[C@H](Cc2c[nH]c3ccccc23)NC(=O)[C@H](CC(N)=O)NC(=O)[C@H](CCCNC(=N)N)NC(=O)CNC(=O)[C@H](CO)NC1=O [Compound 5],33.4
3,CC[C@H](C)[C@@H]1NC(=O)[C@H](Cc2ccc3ccccc3c2)NC(=O)CSC[C@@H](C(N)=O)NC(=O)[C@H](C(C)(C)C)NC(=O)[C@H](Cc2c[nH]c3ccccc23)NC(=O)[C@H](CCCCN)NC(=O)[C@H](C(C)C)NC(=O)[C@H](Cc2c[nH]c3ccccc23)NC(=O)[C@H](CC(N)=O)NC(=O)[C@H](CCCNC(=N)N)NC(=O)CNC(=O)[C@H](CO)NC1=O [Compound 53] ({CH2CO}-[2Nal]ISGRNWVKW[Tle]C-NH2; thioether N-12),15.9
4,CCCC[C@@H]1NC(=O)[C@H](Cc2c[nH]c3ccccc23)NC(=O)[C@H](CC(=O)O)NC(=O)[C@H](CCCCNC(N)=O)NC(=O)CNC(=O)[C@H](CO)NC(=O)[C@H]([C@@H](C)CC)NC(=O)[C@H](Cc2ccc3ccccc3c2)NC(=O)CSC[C@@H](C(N)=O)NC(=O)[C@H](C(C)C)NC(=O)[C@H](Cc2c[nH]c3ccccc23)NC(=O)[C@H](CCCCN)NC1=O [Compound 74] ({CH2CO}-[2Nal]ISG[hCit]DW[Nle]KWVC-NH2; thioether N-12),20.7
5,CC[C@H](C)[C@@H]1NC(=O)[C@H](Cc2ccccc2)NC(=O)CSC[C@@H](C(N)=O)NC(=O)[C@H](C(C)C)NC(=O)[C@H](Cc2c[nH]c3ccccc23)NC(=O)[C@H](C(C)C)NC(=O)[C@H](C(C)C)NC(=O)[C@H](Cc2c[nH]c3ccccc23)NC(=O)[C@H](CC(N)=O)NC(=O)[C@H](CCCNC(=N)N)NC(=O)CNC(=O)[C@H](CO)NC1=O [Compound 1] ({CH2CO}-FISGRNWVVWVC-NH2; thioether N-12),34
